Test results taken from publication PMC11802874, “The hypolipidemic effect of MI-883, the combined CAR agonist/ PXR antagonist, in diet-induced hypercholesterolemia model” (Nature Communications, 2025).
Where “and” joins values, the source holds several entries; their conditions need not be identical. Identical values can stand only once.

Key:
Human recombinant CYP2B6 = molecular target: T1, Human recombinant CYP2B6 (Homo sapiens, UniProt P20813); experiment: CYP450-Glo CYP2B6 enzymatic activity assay; format: biochemical; settings: for Inhibition assays, CYP2B6 activity (replicates): log[Agonist]
T1 construct: purchased Promega; host or cells: baculovirus-infected insect cells
T1 sequence (P20813 1-491): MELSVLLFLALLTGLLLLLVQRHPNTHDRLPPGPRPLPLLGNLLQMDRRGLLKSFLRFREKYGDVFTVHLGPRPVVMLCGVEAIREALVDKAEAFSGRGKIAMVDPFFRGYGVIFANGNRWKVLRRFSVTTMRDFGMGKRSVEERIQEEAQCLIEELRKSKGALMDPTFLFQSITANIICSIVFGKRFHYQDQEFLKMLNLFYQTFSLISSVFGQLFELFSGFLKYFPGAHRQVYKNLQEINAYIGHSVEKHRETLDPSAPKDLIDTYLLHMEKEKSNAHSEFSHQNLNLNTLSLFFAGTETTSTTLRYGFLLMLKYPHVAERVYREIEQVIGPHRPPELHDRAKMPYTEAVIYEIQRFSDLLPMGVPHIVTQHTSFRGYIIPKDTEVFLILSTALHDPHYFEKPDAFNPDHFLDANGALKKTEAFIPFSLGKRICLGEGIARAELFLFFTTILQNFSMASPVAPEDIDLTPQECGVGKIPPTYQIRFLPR
Excerpt: Data are presented as means±S.D. from three independent measurements.

[1] = Stability in mouse plasma; format: in vitro ADME; settings: read-out: Stability in mouse plasma, t1/2
Excerpt: Plasma protein binding, and stability in human and mouse plasma have been tested as previously described.

[2] = Stability in human plasma; format: in vitro ADME; settings: plasma (legend: pooled human serum), read-out: Stability in human plasma, t1/2
Protocol: Plasma protein binding, and stability in human and mouse plasma have been tested as previously described. Supplementary Figure 1. […] Four time points over 120 minutes have been analyzed. […] Compounds were tested in triplicate with or without NADPH.

hERG potassium channel = hERG potassium channel (Homo sapiens, UniProt Q12809); experiment: Thallium flux FLIPR-based hERG assay; format: cell-based
Chain of hERG potassium channel (Q12809 whole entry): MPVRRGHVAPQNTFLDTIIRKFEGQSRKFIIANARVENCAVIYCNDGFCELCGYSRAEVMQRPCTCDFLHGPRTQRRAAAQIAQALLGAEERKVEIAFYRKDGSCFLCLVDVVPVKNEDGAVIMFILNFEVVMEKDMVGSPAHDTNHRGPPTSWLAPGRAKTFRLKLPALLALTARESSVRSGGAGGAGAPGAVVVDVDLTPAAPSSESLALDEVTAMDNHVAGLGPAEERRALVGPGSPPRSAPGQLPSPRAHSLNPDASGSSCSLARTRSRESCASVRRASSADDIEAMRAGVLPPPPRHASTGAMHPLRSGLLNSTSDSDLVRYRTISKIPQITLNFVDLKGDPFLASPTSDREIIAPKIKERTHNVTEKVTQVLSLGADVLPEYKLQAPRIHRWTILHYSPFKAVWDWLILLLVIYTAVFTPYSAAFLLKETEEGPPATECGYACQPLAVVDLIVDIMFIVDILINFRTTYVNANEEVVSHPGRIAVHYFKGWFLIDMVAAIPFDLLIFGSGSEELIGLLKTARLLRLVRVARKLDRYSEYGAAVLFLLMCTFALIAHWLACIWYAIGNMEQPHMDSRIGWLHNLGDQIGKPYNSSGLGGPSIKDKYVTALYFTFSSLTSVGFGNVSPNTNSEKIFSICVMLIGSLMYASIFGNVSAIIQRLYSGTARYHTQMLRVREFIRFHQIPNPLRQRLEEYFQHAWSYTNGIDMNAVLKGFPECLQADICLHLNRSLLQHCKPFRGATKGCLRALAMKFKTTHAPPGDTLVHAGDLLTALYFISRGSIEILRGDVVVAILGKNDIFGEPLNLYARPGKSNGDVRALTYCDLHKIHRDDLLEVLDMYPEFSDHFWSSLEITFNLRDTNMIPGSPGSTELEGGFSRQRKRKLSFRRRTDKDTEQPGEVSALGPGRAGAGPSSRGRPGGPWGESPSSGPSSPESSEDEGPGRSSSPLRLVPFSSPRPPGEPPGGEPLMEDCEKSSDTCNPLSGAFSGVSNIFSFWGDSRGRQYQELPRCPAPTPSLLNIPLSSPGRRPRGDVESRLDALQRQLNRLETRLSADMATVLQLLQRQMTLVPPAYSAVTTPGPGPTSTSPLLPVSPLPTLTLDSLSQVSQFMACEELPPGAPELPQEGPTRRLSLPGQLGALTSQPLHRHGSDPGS
Excerpt: Thallium flux FLIPR-based assay for the identification of hERG potassium channel inhibition

ERα = ERα (Homo sapiens, UniProt P03372); experiment: Luciferase reporter gene assay ERα, HepG2; format: cell-based
Chain of ERα (P03372 311-547 limits assumed, species assumed): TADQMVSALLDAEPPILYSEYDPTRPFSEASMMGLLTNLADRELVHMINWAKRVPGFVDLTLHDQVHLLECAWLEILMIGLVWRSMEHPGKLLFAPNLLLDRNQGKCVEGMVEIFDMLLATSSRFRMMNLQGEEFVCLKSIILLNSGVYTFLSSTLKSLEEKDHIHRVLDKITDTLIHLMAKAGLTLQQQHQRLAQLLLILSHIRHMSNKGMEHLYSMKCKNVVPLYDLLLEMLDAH
Excerpt: (see Supplementary Chapter 7).
Thank you for the insightful question and comment. We have corrected the sentence to read:
Thank you for the idea. Yes, we conducted luciferase reporter assays in antagonistic "mode" for several nuclear receptors using their prototype ligands in the revised manuscript (Figure R7).
This information is included in the Supplementary Information.
Treatment with 5 and 10 µM
(1 picture or pasted object on this page, not shown here) […]
nM dexamethasone, 10 µM GW3965 (LXRα agonist), and 10 µM estradiol. Data are presented as a […]

[3] = test system: LS174T cells (endogenous PXR); experiment: CYP3A4 mRNA RT-qPCR in LS174T cells
Excerpt: LS174T human colon adenocarcinoma cells (RRID:CVCL_1384) were used in induction experiments with the subsequent CYP3A4 mRNA RT-qPCR analysis as they express functional endogenous PXR.

ERβ = ERβ (Homo sapiens, UniProt Q92731); experiment: Luciferase reporter gene assay ERβ, HepG2
Chain of ERβ (Q92731 264-498 limits assumed, species assumed): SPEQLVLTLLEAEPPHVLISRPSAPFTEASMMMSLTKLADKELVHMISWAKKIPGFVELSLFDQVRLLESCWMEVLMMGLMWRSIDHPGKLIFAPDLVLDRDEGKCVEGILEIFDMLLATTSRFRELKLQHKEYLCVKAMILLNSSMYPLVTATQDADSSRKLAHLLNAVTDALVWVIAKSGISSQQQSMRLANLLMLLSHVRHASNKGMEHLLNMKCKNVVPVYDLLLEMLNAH
Excerpt: Gal4-LBD constructs of tested nuclear receptors have been used together with pGL4.31[luc2P/GAL4UAS/Hygro] luciferase reporter construct and pRL-TK Renilla expression vector (both from Promega, Hercules, USA) in HepG2 cells transfected with Lipofectamine 2000 or 3000 reagents. For GRα and FXR receptors, full-length expression vectors have been used with pGRE-luc or pFXRE-luc luciferase constructs. For the aryl hydrocarbon receptor (AhR), p1A1-luc construct was used with only pRL-TK vector for transfection normalization. A dual reporter assay (Promega, Hercules, USA) was used to analyze both firefly and Renilla luciferase activities.
Gal4-LBD constructs of tested nuclear receptors have been used together with pGL5-luc luciferase reporter construct and pRL-TK Renilla expression vector in HepG2 cells transfected with Lipofectamine 2000 or 3000 reagents. For GRα and FXR receptors, full-length expression vectors have been used with pGRE-luc or pFXRE-luc luciferase constructs. For the aryl hydrocarbon receptor (AhR), p1A1-luc construct was used with only pRL-TK vector for transfection normalization. […] Bars represent means±S.D. (n=3).

HepaRG cells = experiment: RT-qPCR mRNA expression in differentiated HepaRG cells
Excerpt: HepaRG cells from Biopredic (Rennes, France) were cultivated and differentiated on the 12-well plates. […] Several batches of HepaRG KO CAR (CAR Knockout HepaRG™ Cells, MTOX1012-1VL, RRID:CVCL_B6AA) and PXR Knockout HepaRG™ Cells, MTOX1011-1VL, RRID:CVCL_B6AS) cells have been obtained from Sigma-Aldrich/Merck (Darmstadt, Germany) and cultivated according to the provider’s protocols. […] Experiments with HepaRG KO PXR and HepaRG KO CAR cells have been performed in duplicates at least in two independent experiments.
RT-qPCR was used to examine gene expression in 2D and 3D PHH, HepaRG cells, or in mouse liver or intestine (ileum) samples as we have described before[60]–[62].
All qRT-qPCR experiments including Trizol reagent (Life Technologies) total RNA isolation, reverse-transcription using a random hexaprimer, and the MMLV Reverse Transcriptase Kit (ThermoFisher Scientific) we have described before^19. qPCR was performed using TaqMan Fast Advanced Master Mix with TaqMan probes (ThermoFisher Scientific). […] The delta-delta method was used for gene expression quantification normalized to at least two reference genes. Three technical replicates were used for each reaction considering the MIQE guidelines. Data are presented as fold induction to vehicle-treated cells/animals.

NC(=O)c1cc(Cn2cc(-c3c(-c4ccc(Cl)cc4)nc4cc(F)ccn34)nn2)ccc1Cl [MI-883, 2-chloro-5-((4-(2-(4-chlorophenyl)-7-fluoroimidazo[1,2-a]pyridin-3-yl)-1H-1,2,3-triazol-1-yl)methyl)benzamide]
inhibition of CYP2B6 activity (Human recombinant CYP2B6): does not suppress
Inhibition assays, CYP2B6 activity (replicates) (Human recombinant CYP2B6; M 0): 129 and 112 and 119
Inhibition assays, CYP2B6 activity (replicates) (Human recombinant CYP2B6; M 0.5): 112
Inhibition assays, CYP2B6 activity (replicates) (Human recombinant CYP2B6; M 0.5, listed as MI 883): 104 and 118
Inhibition assays, CYP2B6 activity (replicates) (Human recombinant CYP2B6; M 1): 114 (2×) and 110
Inhibition assays, CYP2B6 activity (replicates) (Human recombinant CYP2B6; M -0.5): 102 and 120 and 140
Inhibition assays, CYP2B6 activity (replicates) (Human recombinant CYP2B6; M -1): 98
Inhibition assays, CYP2B6 activity (replicates) (Human recombinant CYP2B6; M -1, listed as MI 883): 104 and 111
Inhibition assays, CYP2B6 activity (replicates) (Human recombinant CYP2B6; M -2): 100
Inhibition assays, CYP2B6 activity (replicates) (Human recombinant CYP2B6; M -2.5): 100
Inhibition assays, CYP2B6 activity (replicates) (Human recombinant CYP2B6; M -3): 100
Inhibition assays, CYP2B6 activity (replicates) (Human recombinant CYP2B6; M -3.5): 100
Inhibition assays, CYP2B6 activity (replicates) (Human recombinant CYP2B6; M -4): 100
Inhibition assays, CYP2B6 activity (replicates) (Human recombinant CYP2B6; M -4.5): 100
half-life [1]: > 120 min
half-life at 1 µM [2]: > 120 min
hERG IC50 (hERG potassium channel): could not be defined
hERG assay, inhibition of hERG potassium channel activity (hERG potassium channel): no significant inhibition up to 100 µM
NRs assays: ERalpha (relative to ctrl, replicates) (ERα): 0.77 and 1.06 and 0.79
inhibition of estrogen receptor alpha (ERα), antagonistic mode (ERα; 10 μM MI-883): weak inhibitor
RT-qPCR in LS174T (Fig 1 l, CYP3A4 mRNA), replicates ([3]; Rif 1μM + MI-883 1μM): 2.91 and 2.35 and 2.61
RT-qPCR in LS174T (Fig 1 l, CYP3A4 mRNA), replicates ([3]; Rif 1μM + test compound 10μM): 0.86 and 1.1 and 0.8
RT-qPCR in LS174T (Fig 1 l, CYP3A4 mRNA), replicates ([3]; Rif 10μM + MI-883 1μM): 10.4 and 6.9 and 8.3
RT-qPCR in LS174T (Fig 1 l, CYP3A4 mRNA), replicates ([3]; Rif 10μM + MI-883 10μM): 3.35 and 2.8 and 2.2
RT-qPCR in LS174T (Fig 1 l, CYP3A4 mRNA), replicates ([3]; SR12813 1μM + MI-883 1μM): 0.55 and 0.68 and 0.64
RT-qPCR in LS174T (Fig 1 l, CYP3A4 mRNA), replicates ([3]; SR12813 1μM + test compound 10μM): 0.77 and 0.59 and 0.57
RT-qPCR in LS174T (Fig 1 l, CYP3A4 mRNA), replicates ([3]; single agent 1μM, ctrl = 1): 0.45 and 0.96 and 0.51
RT-qPCR in LS174T (Fig 1 l, CYP3A4 mRNA), replicates ([3]; single agent 10μM): 0.59 and 0.57 and 0.55
NRs assays: ERbeta (relative to ctrl, replicates) (ERβ): 0.84 and 0.86 and 0.88
INSIG1 mRNA in HepaRG cells (HepaRG cells): significantly upregulated
LDLR mRNA in HepaRG cells (HepaRG cells): significant PXR-dependent upregulation
SREBF1 mRNA expression in HepaRG / KO cells (HepaRG cells): CAR-dependent downregulation
SREBF2 mRNA expression in HepaRG cells (HepaRG cells): no significant effect
HMGCR expression relative to control (replicates) (HepaRG cells; MI-883 1 μM): 0.8473 and 0.6697 and 1.095 and 1.161 and 1.262 and 0.6816
HMGCS2 expression relative to control (replicates) (HepaRG cells; MI-883 1 μM): 0.9842 and 0.7188 and 1.1212 and 1.322
PCSK9 expression relative to control (replicates) (HepaRG cells; MI-883 1 μM): 0.9984 and 0.8995 and 1.064 and 1.124
HMGCR expression relative to control (replicates) (HepaRG cells; MI-883 1 μM + Rif (5 μM)): 1.453 and 0.9465 and 0.9544 and 1.191 and 1.542 and 0.8007
HMGCS2 expression relative to control (replicates) (HepaRG cells; MI-883 1 μM + Rif (5 μM)): 0.681 and 1.013 and 0.6433 and 0.4816
PCSK9 expression relative to control (replicates) (HepaRG cells; MI-883 1 μM + Rif (5 μM)): 0.8085 and 0.8006 and 1.133 and 0.9198
HMGCR expression relative to control (replicates) (HepaRG cells; MI-883 5 μM): 1.295 and 1.166 and 1.377 and 1.27 and 0.8404
HMGCS2 expression relative to control (replicates) (HepaRG cells; MI-883 5 μM): 0.5911 and 1.022
PCSK9 expression relative to control (replicates) (HepaRG cells; MI-883 5 μM): 0.6066 and 1.012
HMGCR expression relative to control (replicates) (HepaRG cells; MI-883 5 μM + Rif (5 μM)): 1.005 and 1.538 and 1.592 and 1.152 and 1.312
HMGCS2 expression relative to control (replicates) (HepaRG cells; MI-883 5 μM + Rif (5 μM)): 0.8846 and 0.5305
PCSK9 expression relative to control (replicates) (HepaRG cells; MI-883 5 μM + Rif (5 μM)): 1.035 and 0.636
HMGCR expression relative to control (replicates) (HepaRG cells; MI-883 10 μM): 1.683 and 0.9974 and 1.042 and 1.481
HMGCS2 expression relative to control (replicates) (HepaRG cells; MI-883 10 μM): 0.4009 and 0.6268 and 0.831 and 0.8846
PCSK9 expression relative to control (replicates) (HepaRG cells; MI-883 10 μM): 0.6175 and 0.9465 and 1.014 and 0.9985
HMGCR expression relative to control (replicates) (HepaRG cells; MI-883 10 μM + Rif (5 μM)): 1.336 and 1.4868 and 1.027 and 1.993
HMGCS2 expression relative to control (replicates) (HepaRG cells; MI-883 10 μM + Rif (5 μM)): 0.9594 and 1.125 and 0.477 and 0.8873
